{"source": "patent US12077503B2", "about": "“Substituted cyclic amides and their use as herbicides” (FMC CORPORATION, priority 2015, dated 2024)", "assay_type_in_all_cases": "in vivo", "key": {"[1]": {"test_system": "ducksalad (Heteranthera limosa)", "experiment": "Test B flooded paddy test", "conditions": "Heteranthera limosa, 360 h, Flood, 250 g ai/ha; visually evaluated after 13 to 15 d; read-out: Plant response rating, Ducksalad (0 to 100 scale where 0 is no effect and 100 is complete control)", "in_short": "(§1)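 Compound goes directly into floodwater once pots are flooded 3 cm above soil, targeting plants at two leaves; the water depth is then held for the test duration. Plants sit 13–15 d in a greenhouse and are rated visually, 100 denoting complete control.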"}, "[2]": {"test_system": "sedge, umbrella (small-flower umbrella sedge, Cyperus difformis)", "experiment": "Test B flooded paddy test", "conditions": "Cyperus difformis, 360 h, Flood, 250 g ai/ha; visually evaluated after 13 to 15 d; read-out: Plant response rating, Sedge, Umbrella (0 to 100 scale where 0 is no effect and 100 is complete control)", "in_short": "as §1"}, "[3]": {"test_system": "rice (Oryra sativa)", "experiment": "Test B flooded paddy test", "conditions": "Oryza sativa, 360 h, Flood, 250 g ai/ha; visually evaluated after 13 to 15 d; read-out: Plant response rating, Rice (0 to 100 scale where 0 is no effect and 100 is complete control)", "in_short": "as §1"}, "[4]": {"test_system": "barnyardgrass (Echinochloa crus-galli)", "experiment": "Test B flooded paddy test", "conditions": "Echinochloa crus-galli, 360 h, Flood, 250 g ai/ha; visually evaluated after 13 to 15 d; read-out: Plant response rating, Barnyardgrass (0 to 100 scale where 0 is no effect and 100 is complete control)", "in_short": "as §1"}, "[5]": {"test_system": "Kochia (Kochia scoparia)", "experiment": "Test A preemergence", "conditions": "Bassia scoparia, pre-emergence, 240 h, Preemergence", "in_short": "(§2)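 Each rating is a visual injury score from 0 to 100 given about 10 d after treatment, judged against untreated controls kept alongside in the greenhouse. In loam soil–sand blend, seeds got a preemergence directed soil spray, while postemergence plants were 2 to 10 cm tall at spraying.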"}, "[6]": {"test_system": "pigweed (Amaranthus retroflexus)", "experiment": "Test A preemergence", "conditions": "Amaranthus retroflexus, pre-emergence, 240 h, Preemergence"}, "[7]": {"test_system": "giant foxtail (Setaria faberii)", "experiment": "Test A preemergence", "conditions": "Setaria faberi, pre-emergence, 240 h, Preemergence", "in_short": "as §2"}, "[8]": {"test_system": "ryegrass, Italian (Italian ryegrass, Lolium multiflorum)", "experiment": "Test A preemergence", "conditions": "Lolium multiflorum, pre-emergence, 240 h, Preemergence", "in_short": "as §2"}, "[9]": {"test_system": "ragweed (common ragweed, Ambrosia elatior)", "experiment": "Test A preemergence", "conditions": "Ambrosia artemisiifolia, pre-emergence, 240 h, Preemergence", "in_short": "as §2"}, "[10]": {"test_system": "barnyardgrass (Echinochloa crus-galli)", "experiment": "Test A preemergence", "conditions": "Echinochloa crus-galli, pre-emergence, 240 h, Preemergence", "in_short": "as §2"}, "[11]": {"test_system": "Kochia (Kochia scoparia)", "experiment": "Test A postemergence", "conditions": "Bassia scoparia, post-emergence, 240 h, Postemergence, read-out: Kochia plant response rating (0 to 100 scale)", "in_short": "as §2"}, "[12]": {"test_system": "pigweed (Amaranthus retroflexus)", "experiment": "Test A postemergence", "conditions": "Amaranthus retroflexus, post-emergence, 240 h, Postemergence, read-out: Pigweed plant response rating (0 to 100 scale)", "in_short": "as §2"}, "[13]": {"test_system": "giant foxtail (Setaria faberii)", "experiment": "Test A postemergence", "conditions": "Setaria faberi, post-emergence, 240 h, Postemergence, read-out: Foxtail, Giant plant response rating (0 to 100 scale)", "in_short": "as §2"}, "[14]": {"test_system": "wheat (Triticum aestivum)", "experiment": "Test A postemergence", "conditions": "Triticum aestivum, post-emergence, 240 h, Postemergence, read-out: Wheat plant response rating (0 to 100 scale)", "in_short": "as §2"}, "[15]": {"test_system": "corn (Zea mays)", "experiment": "Test A postemergence", "conditions": "Zea mays, post-emergence, 240 h, Postemergence, read-out: Corn plant response rating (0 to 100 scale)", "in_short": "as §2"}, "[16]": {"test_system": "ryegrass, Italian (Italian ryegrass, Lolium multiflorum)", "experiment": "Test A postemergence", "conditions": "Lolium multiflorum, post-emergence, 240 h, Postemergence, read-out: Ryegrass, Italian plant response rating (0 to 100 scale)", "in_short": "as §2"}, "[17]": {"test_system": "blackgrass (Alopecurus myosuroides)", "experiment": "Test A postemergence", "conditions": "Alopecurus myosuroides, post-emergence, 240 h, Postemergence, read-out: Blackgrass plant response rating (0 to 100 scale)", "in_short": "as §2"}, "[18]": {"test_system": "Galium (catchweed bedstraw, Galium aparine)", "experiment": "Test A postemergence", "conditions": "Galium, post-emergence, 240 h, Postemergence, read-out: Galium plant response rating (0 to 100 scale)", "in_short": "as §2"}, "[19]": {"test_system": "ragweed (common ragweed, Ambrosia elatior)", "experiment": "Test A postemergence", "conditions": "Ambrosia artemisiifolia, post-emergence, 240 h, Postemergence, read-out: Ragweed plant response rating (0 to 100 scale)", "in_short": "as §2"}, "[20]": {"test_system": "barnyardgrass (Echinochloa crus-galli)", "experiment": "Test A postemergence", "conditions": "Echinochloa crus-galli, post-emergence, 240 h, Postemergence", "in_short": "as §2"}, "[21]": {"conditions": "125 g ai/ha, visual rating about 10 d after treatment"}, "[22]": {"conditions": "31 g ai/ha, 0 is no effect, 100 is complete control"}}}
{"smiles": "CN1C[C@H](c2ccc3c(c2)OC(F)(F)O3)[C@@H](C(=O)Nc2cnccc2C(F)(F)F)C1=O", "note": "[Compound 1354]", "values": [{"measurement": "pest or weed control at 250 g/ha", "setting": "[1]", "value": 0, "unit": "%"}, {"measurement": "pest or weed control at 250 g/ha", "setting": "[2]", "value": 0, "unit": "%"}, {"measurement": "pest or weed control at 250 g/ha", "setting": "[3]", "value": 0, "unit": "%"}, {"measurement": "pest or weed control at 250 g/ha", "setting": "[4]", "value": 0, "unit": "%"}, {"measurement": "pest or weed control at 31 g/ha", "setting": "[5]; 31 g ai/ha, 0 to 100 scale where 0 is no effect and 100 is complete control, read-out: Kochia plant response rating", "value": 0, "unit": "%"}, {"measurement": "pest or weed control at 125 g/ha", "setting": "[5]; 125 g ai/ha, 0 to 100 scale (0 no effect, 100 complete control), read-out: Plant response rating, Kochia", "value": 20, "unit": "%"}, {"measurement": "pest or weed control at 31 g/ha", "setting": "[6]; 31 g ai/ha, 0 to 100 scale where 0 is no effect and 100 is complete control, read-out: Pigweed plant response rating", "value": 0, "unit": "%"}, {"measurement": "pest or weed control at 125 g/ha", "setting": "[6]; 125 g ai/ha, 0 to 100 scale (0 no effect, 100 complete control), read-out: Plant response rating, Pigweed", "value": 20, "unit": "%"}, {"measurement": "pest or weed control at 31 g/ha", "setting": "[7]; 31 g ai/ha, 0 to 100 scale where 0 is no effect and 100 is complete control, read-out: Foxtail, Giant plant response rating", "value": 30, "unit": "%"}, {"measurement": "pest or weed control at 125 g/ha", "setting": "[7]; 125 g ai/ha, 0 to 100 scale (0 no effect, 100 complete control), read-out: Plant response rating, Foxtail, Giant", "value": 100, "unit": "%"}, {"measurement": "pest or weed control at 31 g/ha", "setting": "[8]; 31 g ai/ha, 0 to 100 scale where 0 is no effect and 100 is complete control, read-out: Ryegrass, Italian plant response rating", "value": 0, "unit": "%"}, {"measurement": "pest or weed control at 125 g/ha", "setting": "[8]; 125 g ai/ha, 0 to 100 scale (0 no effect, 100 complete control), read-out: Plant response rating, Ryegrass, Italian", "value": 20, "unit": "%"}, {"measurement": "pest or weed control at 31 g/ha", "setting": "[9]; 31 g ai/ha, 0 to 100 scale where 0 is no effect and 100 is complete control, read-out: Ragweed plant response rating", "value": 20, "unit": "%"}, {"measurement": "pest or weed control at 125 g/ha", "setting": "[9]; 125 g ai/ha, 0 to 100 scale (0 no effect, 100 complete control), read-out: Plant response rating, Ragweed", "value": 0, "unit": "%"}, {"measurement": "pest or weed control at 31 g/ha", "setting": "[10]; 31 g ai/ha, 0 to 100 scale where 0 is no effect and 100 is complete control, read-out: Barnyardgrass plant response rating", "value": 0, "unit": "%"}, {"measurement": "pest or weed control at 125 g/ha", "setting": "[10]; 125 g ai/ha, 0 to 100 scale (0 no effect, 100 complete control), read-out: Plant response rating, Barnyardgrass", "value": 80, "unit": "%"}, {"measurement": "pest or weed control at 125 g/ha", "setting": "[11]; [21]", "value": 20, "unit": "%"}, {"measurement": "pest or weed control at 31 g/ha", "setting": "[11]; [22]", "value": 0, "unit": "%"}, {"measurement": "pest or weed control at 125 g/ha", "setting": "[12]; [21]", "value": 0, "unit": "%"}, {"measurement": "pest or weed control at 31 g/ha", "setting": "[12]; [22]", "value": 0, "unit": "%"}, {"measurement": "pest or weed control at 125 g/ha", "setting": "[13]; [21]", "value": 60, "unit": "%"}, {"measurement": "pest or weed control at 31 g/ha", "setting": "[13]; [22]", "value": 0, "unit": "%"}, {"measurement": "plant injury at 125 g/ha", "setting": "[14]; [21]", "value": 0, "unit": "%"}, {"measurement": "plant injury at 31 g/ha", "setting": "[14]; [22]", "value": 0, "unit": "%"}, {"measurement": "plant injury at 125 g/ha", "setting": "[15]; [21]", "value": 0, "unit": "%"}, {"measurement": "plant injury at 31 g/ha", "setting": "[15]; [22]", "value": 0, "unit": "%"}, {"measurement": "pest or weed control at 125 g/ha", "setting": "[16]; [21]", "value": 0, "unit": "%"}, {"measurement": "pest or weed control at 31 g/ha", "setting": "[16]; [22]", "value": 0, "unit": "%"}, {"measurement": "pest or weed control at 125 g/ha", "setting": "[17]; [21]", "value": 0, "unit": "%"}, {"measurement": "pest or weed control at 31 g/ha", "setting": "[17]; [22]", "value": 0, "unit": "%"}, {"measurement": "pest or weed control at 125 g/ha", "setting": "[18]; [21]", "value": 40, "unit": "%"}, {"measurement": "pest or weed control at 31 g/ha", "setting": "[18]; [22]", "value": 20, "unit": "%"}, {"measurement": "pest or weed control at 125 g/ha", "setting": "[19]; [21]", "value": 0, "unit": "%"}, {"measurement": "pest or weed control at 31 g/ha", "setting": "[19]; [22]", "value": 0, "unit": "%"}, {"measurement": "pest or weed control at 125 g/ha", "setting": "[20]; 125 g ai/ha, visual rating about 10 d after treatment, read-out: Barnyardgrass plant response rating (0 to 100 scale, 0 no effect, 100 complete control)", "value": 20, "unit": "%"}, {"measurement": "pest or weed control at 31 g/ha", "setting": "[20]; 31 g ai/ha, 0 is no effect, 100 is complete control, read-out: Barnyardgrass plant response rating (0 to 100 scale)", "value": 0, "unit": "%"}]}
